Laboratory results: patent US20210261621A1, “Preparation of Dilipid Polymixins and Use Thereof as Antimicrobial Adjuvants” (priority 2018, published 2021)
≈ marks a conversion by molar mass, not a printed value. Read-outs that look alike come from different tables or passages of the source. Positions of bridges follow the written chain, without caps; N, C: chain ends. Non-standard residues stand in square brackets, D forms with d. Residues, ends and D or L forms follow the SMILES beside them. *: point of attachment. Benzoyl(4-Ph) = O=C(c1ccc(-c2ccccc2)cc1)*; Dab = NCC[C@H](N)C(=O)O

Experiments:
[1] = test system: P. aeruginosa PA260-97103; assay type: cell-based, Pseudomonas aeruginosa; conditions: P. aeruginosa PA260-97103
Excerpt: (§1) Bacterial strains were either obtained from the American Type Culture Collection (ATCC), Canadian National Intensive Care Unit (CAN-ICU) surveillance study or the Canadian Ward Surveillance (CANWARD) study. Strains from both CAN-ICU and CANWARD are isolates recovered from patients diagnosed with a presumed infectious disease that were admitted in a participating medical center across Canada. Efflux-deficient strain PAO200 (lacking MexAB-OprM efflux system) and PA0750 (lacking MexAB-OprM, MexCD-OprJ, MexEF-OprN, MexJK and MexXY efflux systems, and the outer membrane protein OpmH) were kindly gifted by Dr. Ayush Kumar (University of Manitoba).
(§2) The in vitro antibacterial activity of the compounds studied were assessed by broth microdilution susceptibility testing following CLSI guidelines. Bacterial cultures were grown overnight prior to the assay. The overnight grown cultures were diluted in saline to 0.5 McFarland turbidity, followed by 1:50 dilution in Mueller-Hinton broth (MHB) for inoculation to a final concentration of approximately 5×10^5 colony forming units/mL. Testing was performed on 96-well plates where the tested compounds were 2-fold serially diluted in MHB and incubated with equal volumes of bacterial inoculum at 37° C. for 18 h. […] Wells containing MHB with or without bacterial cells were used as positive or negative control, respectively.

[2] = test system: P. aeruginosa PA259-96918; assay type: cell-based, Pseudomonas aeruginosa; conditions: P. aeruginosa PA259-96918
Excerpt: as §1, §2

P. aeruginosa PA101885 = assay type: cell-based, Pseudomonas aeruginosa; conditions: P. aeruginosa PA101885
Excerpt: as §1, §2

P. aeruginosa PA095 = assay type: cell-based, Pseudomonas aeruginosa; conditions: P. aeruginosa PA095
Excerpt: as §1, §2

[3] = test system: P. aeruginosa CAN-ICU 62308; assay type: cell-based, Pseudomonas aeruginosa; conditions: P. aeruginosa CAN-ICU 62308
Excerpt: as §1, §2

P. aeruginosa PAO1 = assay type: cell-based, Pseudomonas aeruginosa; conditions: P. aeruginosa PAO1 (wild type)
Excerpt: as §1, §2

P. aeruginosa ATCC 27853 = assay type: cell-based, Pseudomonas aeruginosa; conditions: P. aeruginosa ATCC 27853
Excerpt: as §1, §2

P. aeruginosa PA100036 = assay type: cell-based, Pseudomonas aeruginosa; conditions: P. aeruginosa PA100036
Excerpt: as §1, §2

[4] = test system: P. aeruginosa PA264-104354; assay type: cell-based, Pseudomonas aeruginosa; conditions: P. aeruginosa PA264-104354
Excerpt: as §1, §2

[5] = test system: P. aeruginosa PA262-101856; assay type: cell-based, Pseudomonas aeruginosa; conditions: P. aeruginosa PA262-101856
Excerpt: as §1, §2

K. pneumoniae 113250 = assay type: cell-based, Klebsiella pneumoniae
Method: (§3) We then addressed the possibility for the dilipid polymyxins to display enhanced antibacterial activity against colistin-resistant Gram-negative pathogens. […] The extended hydrophobic region of the dilipid polymyxin may provide additional hydrophobic interactions to the outer membrane of colistin-resistant organisms. Eight MDR colistin-resistant Gram-negative bacterial isolates were tested, including two E. coli isolates harboring the mcr-1 plasmid-encoded polymyxin resistance gene. We found no difference between the antibacterial activity of dilipid polymyxins and colistin against colistin-resistant Gram-negative bacteria (Table 3).
as §1, §2

K. pneumoniae 113254 = assay type: cell-based, Klebsiella pneumoniae
Method: as §3, §1, §2

E. cloacae 117029 = assay type: cell-based, Enterobacter cloacae; conditions: E. cloacae 117029
Excerpt: as §1, §2

MSSE CANWARD-2008 81388 = assay type: cell-based, Staphylococcus epidermidis; conditions: for MIC: MSSE CANWARD-2008 81388 (methicillin-susceptible Staphylococcus epidermidis)
Excerpt: as §1, §2

K. pneumoniae ATCC 13883 = assay type: cell-based, Klebsiella pneumoniae; conditions: K. pneumoniae ATCC 13883
Excerpt: as §1, §2

K. pneumoniae 116381 = assay type: cell-based, Klebsiella pneumoniae; conditions: K. pneumoniae 116381
Excerpt: as §1, §2

A. baumannii 92247 = assay type: cell-based, Acinetobacter baumannii
Method: as §3, §1, §2

E. coli CAN-ICU 61714 = assay type: cell-based, Escherichia coli; conditions: E. coli CAN-ICU 61714
Excerpt: as §1, §2

E. coli 107115 = assay type: cell-based, Escherichia coli; conditions: E. coli 107115
Excerpt: as §1, §2

E. coli ATCC 25922 = assay type: cell-based, Escherichia coli; conditions: E. coli ATCC 25922
Excerpt: as §1, §2

E. coli CAN-ICU 63074 = assay type: cell-based, Escherichia coli; conditions: E. coli CAN-ICU 63074
Excerpt: as §1, §2

P. aeruginosa PAO200 = conditions: for MIC: P. aeruginosa PAO200, efflux-deficient strain that lacks the MexAB-OprM pump
Excerpt: (§4) To our curiosity, we explored whether efflux can affect the activity of polymyxins. It is widely accepted that polymyxins disrupt Gram-negative bacterial membranes that result to intracellular component leakage and bacterial cell death. However, for this to occur requires the agent to reach the periplasmic space to interact and disrupt the inner membrane. Active efflux may potentially expel polymyxins out of the periplasm, effectively reducing its periplasmic and intracellular concentrations. To study the effect of efflux on polymyxins in Gram-negative pathogens, we used P. aeruginosa as they inherently overexpress efflux systems such as MexAB-OprM, MexCD-OprJ and MexXY-OprM. Moreover, antibiotic substrates for these efflux systems are mostly characterized. We evaluated and compared the activity of the dilipid polymyxins, colistin and PMBN against wild-type PAO1 and two efflux-deficient P. aeruginosa isogenic mutants (Table 5). The strain PAO200 lacks the MexAB-OprM efflux system while strain PAO750 lacks five clinically-relevant pumps (MexAB-OprM, MexCD-OprJ, MexEF-OprN, MexJK and MexXY) and outer membrane protein OpmH.
as §1, §2

P. aeruginosa PAO750 = conditions: P. aeruginosa PAO750, efflux-deficient strain that lacks five pumps and OpmH
Excerpt: as §4, §1, §2

Compound	MIC [1]	MIC [2]	MIC (P. aeruginosa PA101885)	MIC (P. aeruginosa PA095)	MIC [3]	MIC (P. aeruginosa PAO1)	MIC (P. aeruginosa ATCC 27853)	MIC (P. aeruginosa PA100036)	MIC [4]	MIC [5]	MIC (E. cloacae 117029)	MIC (MSSE CANWARD-2008 81388)	MIC (K. pneumoniae ATCC 13883)	MIC (K. pneumoniae 116381)	MIC (E. coli CAN-ICU 61714)	MIC (E. coli 107115)	MIC (E. coli ATCC 25922)	MIC (E. coli CAN-ICU 63074)	MIC (P. aeruginosa PAO200)	MIC (P. aeruginosa PAO750)	also measured
CC(C)C[C@@H]1NC(=O)[C@@H](Cc2ccccc2)NC(=O)[C@H](CCN)NC(=O)[C@@H](NC(=O)[C@H](CCN)NC(=O)[C@@H](NC(=O)[C@H](CCNC(=O)c2ccc(-c3ccccc3)cc2)NC(=O)c2ccc(-c3ccccc3)cc2)[C@@H](C)O)CCNC(=O)[C@H]([C@@H](C)O)NC(=O)[C@H](CCN)NC(=O)[C@H](CCN)NC1=O [Compound 5, Dibiphenyl-4-Carboxylic Acid (Di-Biphenyl) Polymyxin] ({Benzoyl(4-Ph)}-[Dab](Benzoyl(4-Ph))T[Dab][Dab][Dab][dF]L[Dab][Dab]T; lactam 4-C)	8 µg/mL (≈ 5.62 µM)	8 µg/mL (≈ 5.62 µM)	8 µg/mL (≈ 5.62 µM)	4 µg/mL (≈ 2.81 µM)	16 µg/mL (≈ 11.2 µM)	8 µg/mL (≈ 5.62 µM)	32 µg/mL (≈ 22.5 µM)	8 µg/mL (≈ 5.62 µM)	8 µg/mL (≈ 5.62 µM)	8 µg/mL (≈ 5.62 µM)	8 µg/mL (≈ 5.62 µM)	8 µg/mL (≈ 5.62 µM)	>128 µg/mL	>128 µg/mL	32 µg/mL (≈ 22.5 µM)	4 µg/mL (≈ 2.81 µM)	8 µg/mL (≈ 5.62 µM)	32 µg/mL (≈ 22.5 µM)	4 µg/mL (≈ 2.81 µM)	4 µg/mL (≈ 2.81 µM)	MIC (K. pneumoniae 113250; 113250): >64 µg/mL; MIC (K. pneumoniae 113254; 113254): >64 µg/mL; fold better MIC than colistin (MSSE CANWARD-2008 81388; methicillin-susceptible Staphylococcus epidermidis): 32 fold; MIC (A. baumannii 92247; 92247): 8 µg/mL (≈ 5.62 µM)
colistin [reference compound]	0.5 µg/mL	0.25 µg/mL	1 µg/mL	0.25 µg/mL	2 µg/mL	1 µg/mL	2 µg/mL	1 µg/mL	2 µg/mL	2 µg/mL	0.125 µg/mL	256 µg/mL	≤0.25 µg/mL	1 µg/mL	0.5 µg/mL	0.5 µg/mL	0.5 µg/mL	≤0.5 µg/mL	0.5 µg/mL	0.5 µg/mL	MIC (K. pneumoniae 113250; K. pneumoniae 113250, colistin-resistant multidrug-resistant isolate): 256 µg/mL; MIC (K. pneumoniae 113254; K. pneumoniae 113254, colistin-resistant multidrug-resistant isolate): 256 µg/mL; MIC (A. baumannii 92247; A. baumannii 92247, colistin-resistant multidrug-resistant isolate): 4 µg/mL; difference in MIC among the three P. aeruginosa strains tested (P. aeruginosa PAO200; PAO1, PAO200, PAO750): no difference
